Like-named read-outs stand apart in the source and are kept apart here.
Tests used:
Type in all cases: cell-based, Escherichia coli
E. coli EKO-35 = assay: microbe, parasite or virus in culture; details: for Fold change of MICs: EKO-35 compared to EKO-35 (reference); for MIC: Escherichia coli, EKO35
In short: (§1)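 Overnight LB cultures resuspended in PBS to OD600 ~1.0, diluted 1/2000 into MHB II, and added to 2-fold serial compound dilutions in duplicate with DMSO controls. Incubated 18 h at 37° C. with 900 rpm shaking; OD600 read before and after, background subtracted, to derive MIC.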

E. coli ΔtolC = assay: microbe, parasite or virus in culture; details: for Minimum inhibitory concentration (MIC), ΔtolC: Table 10, without pore
In short: as §1

[1] = tested on: wild-type E. coli K-12 str. BW25113; assay: microbe, parasite or virus in culture; details: technical duplicate; for MIC: Escherichia coli, BW25113
In short: as §1

EKO-35 araC::acrBD408A = assay: MIC susceptibility profiling, efflux platform; details: for Fold change of MICs: EKO-35 araC::acrBD408A compared to EKO-35
In short: as §1

EKO-35 araC::acrB = assay: MIC susceptibility profiling, efflux platform; details: for Fold change of MICs: EKO-35 araC::acrB compared to EKO-35
In short: as §1

EKO-35 araC::acrD = assay: MIC susceptibility profiling, efflux platform; details: for Fold change of MICs: EKO-35 araC::acrD compared to EKO-35
In short: as §1

EKO-35 araC::acrEF = assay: MIC susceptibility profiling, efflux platform; details: for Fold change of MICs: EKO-35 araC::acrEF compared to EKO-35
In short: as §1

EKO-35 araC::emrAB = assay: MIC susceptibility profiling, efflux platform; details: for Fold change of MICs: EKO-35 araC::emrAB compared to EKO-35
In short: as §1

EKO-35 araC::emrKY = assay: MIC susceptibility profiling, efflux platform; details: for Fold change of MICs: EKO-35 araC::emrKY compared to EKO-35
In short: as §1

EKO-35 araC::macAB = assay: MIC susceptibility profiling, efflux platform; details: for Fold change of MICs: EKO-35 araC::macAB compared to EKO-35
In short: as §1

EKO-35 araC::mdtBC = assay: MIC susceptibility profiling, efflux platform; details: for Fold change of MICs: EKO-35 araC::mdtBC compared to EKO-35
In short: as §1

EKO-35 araC::mdtEF = assay: MIC susceptibility profiling, efflux platform; details: for Fold change of MICs: EKO-35 araC::mdtEF compared to EKO-35
In short: as §1

[2] = tested on: EKO-35 araC::mexCD (MexCD from P. aeruginosa); assay: MIC susceptibility profiling, efflux platform; details: for Fold change of MICs: EKO-35 araC::mexCD compared to EKO-35
In short: as §1

wild-type (WT) K-12-Pore = assay: microbe, parasite or virus in culture; details: technical duplicate; for MIC: Escherichia coli
In short: (§2)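 Strains carry the fhuA ΔC/Δ4L pore integrated between glmS and pstS under a constitutive promoter, with pore activity checked by vancomycin susceptibility. Overnight LB cultures were adjusted in PBS pH 7.4 to OD600 ~1.0 and diluted 1/2000 into MHB II. 2-fold compound titrations were read by OD600 after 18 h at 37 °C.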

ΔtolC-Pore = assay: microbe, parasite or virus in culture; details: for Minimum inhibitory concentration (MIC), Pore ΔtolC: Table 10, with pore
In short: as §2

EKO-35 araC::acrEF Pore = assay: MIC susceptibility profiling, porinated efflux platform; details: for Fold changes of MICs: EKO-35 araC::acrEF Pore compared to EKO-35-Pore
In short: as §2

EKO-35 araC::emrKY Pore = assay: as above; details: for Fold changes of MICs: EKO-35 araC::emrKY Pore compared to EKO-35-Pore
In short: as §2

EKO-35 araC::macAB Pore = assay: as above; details: for Fold changes of MICs: EKO-35 araC::macAB Pore compared to EKO-35-Pore
In short: as §2

EKO-35 araC::mdtEF Pore = assay: as above; details: for Fold changes of MICs: EKO-35 araC::mdtEF Pore compared to EKO-35-Pore
In short: as §2

[3] = Table 13A, non-porinated, technical duplicate
[4] = Table 13B, non-porinated, technical duplicate
[5] = Table 14A, porinated, technical duplicate

CC[n+]1c(-c2ccccc2)c2cc(N)ccc2c2ccc(N)cc21 [ethidium bromide]
Fold change of MICs (E. coli EKO-35): 1 fold
MIC (E. coli EKO-35; Table 10, without pore, technical duplicate, read-out: Minimum inhibitory concentration (MIC), EKO-35): 0.195 µg/mL
MIC (E. coli EKO-35; Table 13A, non-porinated, technical duplicate, read-out: Minimum Inhibitory Concentration, EKO-35): 0.195 µg/mL
MIC (E. coli ΔtolC; Escherichia coli, 18 h, read-out: Minimum Inhibitory Concentration, ΔtolC): 3.12 µg/mL
Minimum inhibitory concentration (MIC), ΔtolC (E. coli ΔtolC; technical duplicate): 3.125 µg/mL
MIC ([1]; Table 10, without pore, read-out: Minimum inhibitory concentration (MIC), K-12): 100 µg/mL
MIC ([1]; Table 13A, non-porinated, read-out: Minimum Inhibitory Concentration, K-12): 100 µg/mL
Fold change of MICs (EKO-35 araC::acrBD408A): 2 fold
MIC (EKO-35 araC::acrBD408A; Escherichia coli, Table 13B, non-porinated, technical duplicate, read-out: Minimum Inhibitory Concentration, EKO-35 araC::acrBD408A): 0.391 µg/mL
Fold change of MICs (EKO-35 araC::acrB): 64 fold
MIC (EKO-35 araC::acrB; Escherichia coli, Table 13A, non-porinated, technical duplicate, read-out: Minimum Inhibitory Concentration, EKO-35 araC::acrB): 12.5 µg/mL
Fold change of MICs (EKO-35 araC::acrD): 2 fold
MIC (EKO-35 araC::acrD; Escherichia coli, Table 13A, non-porinated, technical duplicate, read-out: Minimum Inhibitory Concentration, EKO-35 araC::acrD): 0.391 µg/mL
Fold change of MICs (EKO-35 araC::acrEF): 16 fold
MIC (EKO-35 araC::acrEF; Escherichia coli, Table 13A, non-porinated, technical duplicate, read-out: Minimum Inhibitory Concentration, EKO-35 araC::acrEF): 3.12 µg/mL
Fold change of MICs (EKO-35 araC::emrAB): 1 fold
MIC (EKO-35 araC::emrAB; Escherichia coli, Table 13B, non-porinated, technical duplicate, read-out: Minimum Inhibitory Concentration, EKO-35 araC::emrAB): 0.195 µg/mL
Fold change of MICs (EKO-35 araC::emrKY): 1 fold
MIC (EKO-35 araC::emrKY; Escherichia coli, Table 13B, non-porinated, technical duplicate, read-out: Minimum Inhibitory Concentration, EKO-35 araC::emrKY): 0.195 µg/mL
Fold change of MICs (EKO-35 araC::macAB): 1 fold
MIC (EKO-35 araC::macAB; Escherichia coli, Table 13B, non-porinated, technical duplicate, read-out: Minimum Inhibitory Concentration, EKO-35 araC::macAB): 0.195 µg/mL
Fold change of MICs (EKO-35 araC::mdtBC): 1 fold
MIC (EKO-35 araC::mdtBC; Escherichia coli, Table 13B, non-porinated, technical duplicate, read-out: Minimum Inhibitory Concentration, EKO-35 araC::mdtBC): 0.195 µg/mL
Fold change of MICs (EKO-35 araC::mdtEF): 8 fold
MIC (EKO-35 araC::mdtEF; Escherichia coli, Table 13A, non-porinated, technical duplicate, read-out: Minimum Inhibitory Concentration, EKO-35 araC::mdtEF): 1.56 µg/mL
Fold change of MICs [2]: 8 fold
MIC ([2]; Table 13B, non-porinated, technical duplicate, read-out: Minimum Inhibitory Concentration, EKO-35 araC::mexCD): 1.56 µg/mL
MIC (wild-type (WT) K-12-Pore; Table 10, with pore, read-out: Minimum inhibitory concentration (MIC), Pore K-12): 100 µg/mL
MIC (wild-type (WT) K-12-Pore; Table 14A, porinated, read-out: Minimum inhibitory concentration, K-12 (WT)-Pore): 100 µg/mL
MIC (ΔtolC-Pore; Escherichia coli, 18 h, read-out: Minimum inhibitory concentration, ΔtolC-Pore): 3.12 µg/mL
Minimum inhibitory concentration (MIC), Pore ΔtolC (ΔtolC-Pore; technical duplicate): 3.125 µg/mL
Fold changes of MICs (EKO-35 araC::acrEF Pore): 16 fold
MIC (EKO-35 araC::acrEF Pore; Escherichia coli, Table 14A, porinated, technical duplicate, read-out: Minimum inhibitory concentration, EKO-35 araC::acrEF Pore): 1.56 µg/mL
Fold changes of MICs (EKO-35 araC::emrKY Pore): 1 fold
MIC (EKO-35 araC::emrKY Pore; Escherichia coli, EKO-35 araC::emrKY Pore, technical duplicate, read-out: Minimum inhibitory concentration): 0.098 µg/mL
Fold changes of MICs (EKO-35 araC::macAB Pore): 1 fold
MIC (EKO-35 araC::macAB Pore; Escherichia coli, EKO-35 araC::macAB Pore, technical duplicate, read-out: Minimum inhibitory concentration): 0.098 µg/mL
Fold changes of MICs (EKO-35 araC::mdtEF Pore): 8 fold
MIC (EKO-35 araC::mdtEF Pore; Escherichia coli, Table 14A, porinated, technical duplicate, read-out: Minimum inhibitory concentration, EKO-35 araC::mdtEF Pore): 0.781 µg/mL

N#Cc1ccc(-c2c(NC(=O)C(Cl)Cl)oc(-c3cccs3)c2C#N)cc1 [compound 2]
Fold change of MICs (E. coli EKO-35): 1 fold
Minimum inhibitory concentration (MIC), EKO-35 (E. coli EKO-35; Table 10, without pore, technical duplicate): 320 µg/mL
Minimum Inhibitory Concentration, EKO-35 (E. coli EKO-35; [3]): 320 µg/mL
Minimum inhibitory concentration (MIC), ΔtolC (E. coli ΔtolC; technical duplicate): 1.25 µg/mL
Minimum Inhibitory Concentration, ΔtolC (E. coli ΔtolC; [3]): 1.25 µg/mL
Minimum inhibitory concentration (MIC), K-12 ([1]; Table 10, without pore): 320 µg/mL
Minimum Inhibitory Concentration, K-12 ([1]; Table 13A, non-porinated): 320 µg/mL
Fold change of MICs (EKO-35 araC::acrBD408A): 1 fold
Minimum Inhibitory Concentration, EKO-35 araC::acrBD408A (EKO-35 araC::acrBD408A; [4]): 320 µg/mL
Fold change of MICs (EKO-35 araC::acrB): 1 fold
Minimum Inhibitory Concentration, EKO-35 araC::acrB (EKO-35 araC::acrB; [3]): 320 µg/mL
Fold change of MICs (EKO-35 araC::acrD): 1 fold
Minimum Inhibitory Concentration, EKO-35 araC::acrD (EKO-35 araC::acrD; [3]): 320 µg/mL
Fold change of MICs (EKO-35 araC::acrEF): 1 fold
Minimum Inhibitory Concentration, EKO-35 araC::acrEF (EKO-35 araC::acrEF; [3]): 320 µg/mL
Fold change of MICs (EKO-35 araC::emrAB): 1 fold
Minimum Inhibitory Concentration, EKO-35 araC::emrAB (EKO-35 araC::emrAB; [4]): 320 µg/mL
Fold change of MICs (EKO-35 araC::emrKY): 1 fold
Minimum Inhibitory Concentration, EKO-35 araC::emrKY (EKO-35 araC::emrKY; [4]): 320 µg/mL
Fold change of MICs (EKO-35 araC::macAB): 1 fold
Minimum Inhibitory Concentration, EKO-35 araC::macAB (EKO-35 araC::macAB; [4]): 320 µg/mL
Fold change of MICs (EKO-35 araC::mdtBC): 1 fold
Minimum Inhibitory Concentration, EKO-35 araC::mdtBC (EKO-35 araC::mdtBC; [4]): 320 µg/mL
Fold change of MICs (EKO-35 araC::mdtEF): 1 fold
Minimum Inhibitory Concentration, EKO-35 araC::mdtEF (EKO-35 araC::mdtEF; [3]): 320 µg/mL
Fold change of MICs [2]: 1 fold
Minimum Inhibitory Concentration, EKO-35 araC::mexCD [2, 4]: 320 µg/mL
Minimum inhibitory concentration (MIC), Pore K-12 (wild-type (WT) K-12-Pore; Table 10, with pore): 320 µg/mL
Minimum inhibitory concentration, K-12 (WT)-Pore (wild-type (WT) K-12-Pore; Table 14A, porinated): 320 µg/mL
Minimum inhibitory concentration (MIC), Pore ΔtolC (ΔtolC-Pore; technical duplicate): 1.25 µg/mL
Minimum inhibitory concentration, ΔtolC-Pore (ΔtolC-Pore; [5]): 1.25 µg/mL
Fold changes of MICs (EKO-35 araC::acrEF Pore): 1 fold
Minimum inhibitory concentration, EKO-35 araC::acrEF Pore (EKO-35 araC::acrEF Pore; [5]): 320 µg/mL
Fold changes of MICs (EKO-35 araC::emrKY Pore): 1 fold
Minimum inhibitory concentration (EKO-35 araC::emrKY Pore; EKO-35 araC::emrKY Pore, technical duplicate): 320 µg/mL
Fold changes of MICs (EKO-35 araC::macAB Pore): 1 fold
Minimum inhibitory concentration (EKO-35 araC::macAB Pore; EKO-35 araC::macAB Pore, technical duplicate): 320 µg/mL
Fold changes of MICs (EKO-35 araC::mdtEF Pore): 1 fold
Minimum inhibitory concentration, EKO-35 araC::mdtEF Pore (EKO-35 araC::mdtEF Pore; [5]): 320 µg/mL

— US20230407243A1, “GENETIC PLATFORM TO INVESTIGATE THE FUNCTIONS OF BACTERIAL DRUG EFFLUX PUMPS” (priority 2022, published 2023)
